Test results as given in patent US9862686B2, “N1-sulfonyl-5-fluoropyrimidinone derivatives” (Adama Makhteshim Ltd., priority 2009, dated 2018).
Where two headings read alike, the source gives them in different places. Blank lines part the entries; values can stand above or below the molecule they belong to.

Legend:
[1] = test system: Mycosphaerella graminicola; Anamorph: Septoria tritici; Bayer Code SEPTTR; assay: Fungicidal activity: leaf blotch of wheat, protectant and curative treatment of inoculated wheat plants; type: in vivo; conditions: Zymoseptoria tritici
Experimental: Evaluation of Fungicidal Activity: Leaf Blotch of Wheat (Mycosphaerella graminicola; Anamorph: Septoria tritici; Bayer Code SEPTTR)
Wheat plants (variety Yuma) were grown from seed in a greenhouse in 50% mineral soil/50% soil-less Metro mix until the first leaf was fully emerged, with 7-10 seedlings per pot. These plants were inoculated with an aqueous spore suspension of Septoria tritici either prior to or after fungicide treatments. After inoculation the plants were kept in 100% relative humidity (one day in a dark dew chamber followed by two to three days in a lighted dew chamber) to permit spores to germinate and infect the leaf. The plants were then transferred to a greenhouse for disease to develop.
The following table presents the activity of typical compounds of the present disclosure when evaluated in these experiments. The effectiveness of the test compounds in controlling disease was determined by assessing the severity of disease on treated plants, then converting the severity to percent control based on the level of disease on untreated, inoculated plants.
In each case of Table II the rating scale is as follows: […]

[2] = 24 h, One-Day Protectant (1DP), 100 ppm, wheat plants (variety Yuma), percent control vs untreated inoculated plants, read-out: SEPTTR 100 PPM 1DP (% Disease Control rating)
[3] = 72 h, Three-Day Curative (3DC), 100 ppm, wheat plants (variety Yuma), percent control vs untreated inoculated plants, read-out: SEPTTR 100 PPM 3DC (% Disease Control rating)
[4] = 24 h, read-out: SEPTTR 100 PPM 1DP (% Disease Control rating)
[5] = 72 h, read-out: SEPTTR 100 PPM 3DC (% Disease Control rating)

melting point: 235 to 237 °C
SMILES: Cn1cnc(S(=O)(=O)n2cc(F)c(N)nc2=O)c1 [Cmpd 11]
pest or weed control at 100 ppm [1, 2]: 26 to 50%
pest or weed control at 100 ppm [1, 3]: 26 to 50%

melting point: 172 to 174 °C
SMILES: Nc1nc(=O)n(S(=O)(=O)Cc2ccccc2)cc1F [Cmpd 12]
pest or weed control at 100 ppm [1, 2]: 76 to 100%
pest or weed control at 100 ppm [1, 3]: 76 to 100%

melting point: 229 to 230 °C
SMILES: Nc1nc(=O)n(S(=O)(=O)c2ccc(Cl)cc2Cl)cc1F [Cmpd 13]
pest or weed control at 100 ppm [1, 2]: 76 to 100%
pest or weed control at 100 ppm [1, 3]: 76 to 100%

melting point: 202 to 204 °C
SMILES: Nc1nc(=O)n(S(=O)(=O)c2ccc(C(F)(F)F)cc2)cc1F [Cmpd 14]
pest or weed control at 100 ppm [1, 2]: 76 to 100%
pest or weed control at 100 ppm [1, 3]: 76 to 100%

melting point: 220 to 223 °C
SMILES: CS(=O)(=O)c1ccc(S(=O)(=O)n2cc(F)c(N)nc2=O)cc1 [Cmpd 15]
pest or weed control at 100 ppm [1, 2]: 51 to 75%
pest or weed control at 100 ppm [1, 3]: 76 to 100%

melting point: 210 °C
SMILES: N#Cc1ccc(S(=O)(=O)n2cc(F)c(N)nc2=O)cc1 [Cmpd 16]
pest or weed control at 100 ppm [1, 2]: 51 to 75%
pest or weed control at 100 ppm [1, 3]: 76 to 100%

melting point: 206 to 207 °C
SMILES: Nc1nc(=O)n(S(=O)(=O)c2ccc(Cl)c(Cl)c2)cc1F [Cmpd 17]
pest or weed control at 100 ppm [1, 2]: 76 to 100%
pest or weed control at 100 ppm [1, 3]: 76 to 100%

melting point: 209 to 212 °C
SMILES: Nc1nc(=O)n(S(=O)(=O)c2c(Cl)cccc2Cl)cc1F [Cmpd 18]
pest or weed control at 100 ppm [1, 2]: 76 to 100%
pest or weed control at 100 ppm [1, 3]: 76 to 100%

melting point: 156 to 159 °C
SMILES: Nc1nc(=O)n(S(=O)(=O)Cc2ccc(Br)cc2)cc1F [Cmpd 19]
pest or weed control at 100 ppm [1, 2]: 76 to 100%
pest or weed control at 100 ppm [1, 3]: 76 to 100%

melting point: 132 °C (dec.)
SMILES: Cc1cc(Oc2ncc(C(F)(F)F)cc2Cl)ccc1S(=O)(=O)n1cc(F)c(N)nc1=O [Cmpd 23]
pest or weed control at 100 ppm [1, 2]: 76 to 100%
pest or weed control at 100 ppm [1, 3]: 76 to 100%

melting point: 195 to 196 °C
SMILES: Nc1nc(=O)n(S(=O)(=O)c2ccccc2)cc1F [Cmpd 24]
pest or weed control at 100 ppm [1, 2]: 76 to 100%
pest or weed control at 100 ppm [1, 3]: 76 to 100%

melting point: 208 to 210 °C
SMILES: Cc1ccc(S(=O)(=O)n2cc(F)c(N)nc2=O)cc1 [Cmpd 25]
pest or weed control at 100 ppm [1, 2]: 76 to 100%
pest or weed control at 100 ppm [1, 3]: 76 to 100%

melting point: 182.5 °C
SMILES: COc1ccc(S(=O)(=O)n2cc(F)c(N)nc2=O)cc1 [Cmpd 26]
pest or weed control at 100 ppm [1, 2]: 76 to 100%
pest or weed control at 100 ppm [1, 3]: 76 to 100%

melting point: 181 to 184 °C
SMILES: CS(=O)(=O)n1cc(F)c(N)nc1=O [Cmpd 27]
pest or weed control at 100 ppm [1, 2]: 76 to 100%
pest or weed control at 100 ppm [1, 3]: 76 to 100%

melting point: 207 to 211 °C
SMILES: CN(C)/C=N/c1nc(=O)n(S(=O)(=O)c2c(Cl)cccc2Cl)cc1F [Cmpd 29]
pest or weed control at 100 ppm [1, 2]: 76 to 100%
pest or weed control at 100 ppm [1, 3]: 76 to 100%

melting point: 159 to 162 °C
SMILES: CC(=O)Nc1nc(=O)n(S(=O)(=O)c2ccc(Cl)cc2)cc1F [Cmpd 34]
pest or weed control at 100 ppm [1, 2]: 76 to 100%
pest or weed control at 100 ppm [1, 3]: 76 to 100%

Further lines, the molecule ahead of its results:

SMILES: CCC(=O)Nc1nc(=O)n(S(=O)(=O)c2ccc(Cl)cc2)cc1F [Cmpd 35]
melting point: 148 to 154 °C (dec.)
pest or weed control at 100 ppm [1, 2]: 76 to 100%
pest or weed control at 100 ppm [1, 3]: 76 to 100%

SMILES: CC(C)(C)C(=O)Nc1nc(=O)n(S(=O)(=O)c2ccc(Cl)cc2)cc1F [Cmpd 36]
melting point: 129 to 132 °C
pest or weed control at 100 ppm [1, 2]: 76 to 100%
pest or weed control at 100 ppm [1, 3]: 76 to 100%

SMILES: O=C(Nc1nc(=O)n(S(=O)(=O)c2ccc(Cl)cc2)cc1F)c1ccccc1 [Cmpd 37]
melting point: 156 to 159 °C
pest or weed control at 100 ppm [1, 2]: 76 to 100%
pest or weed control at 100 ppm [1, 3]: 26 to 50%

SMILES: Cc1ccc(C(=O)Nc2nc(=O)n(S(=O)(=O)c3ccc(Cl)cc3)cc2F)cc1 [Cmpd 39]
melting point: 156 to 158 °C
pest or weed control at 100 ppm [1, 2]: 0 to 25%
pest or weed control at 100 ppm [1, 3]: 76 to 100%

SMILES: O=C(Nc1ccccc1)Nc1nc(=O)n(S(=O)(=O)c2ccccc2)cc1F [Cmpd 40, 1-(1-benzenesulfonyl-5-fluoro-2-oxo-1,2-dihydropyrimidin-4-yl)-3-phenylurea]
melting point: 210 to 214 °C
pest or weed control at 100 ppm [1, 4]: 0 to 25%
pest or weed control at 100 ppm [1, 5]: 26 to 50%

SMILES: O=C(Nc1ccccc1)Nc1nc(=O)n(S(=O)(=O)c2c(Cl)cccc2Cl)cc1F [Cmpd 42]
melting point: 205 to 210 °C
pest or weed control at 100 ppm [1, 2]: 0 to 25%
pest or weed control at 100 ppm [1, 3]: 26 to 50%

SMILES: COc1ccc(S(=O)(=O)n2cc(F)c(NC(=O)Nc3ccccc3)nc2=O)cc1 [Cmpd 43]
melting point: 185 to 191 °C
pest or weed control at 100 ppm [1, 2]: 0 to 25%
pest or weed control at 100 ppm [1, 3]: 26 to 50%

SMILES: O=c1nc(NC(=S)Nc2ccccc2)c(F)cn1S(=O)(=O)c1ccccc1 [Cmpd 44, (1-benzenesulfonyl-5-fluoro-2-oxo-1,2-dihydropyrimidin-4-yl)-3-phenylthiourea]
melting point: 205 to 208 °C
pest or weed control at 100 ppm [1, 4]: 0 to 25%
pest or weed control at 100 ppm [1, 5]: 26 to 50%

SMILES: COc1ccc(S(=O)(=O)n2cc(F)c(NC(=S)Nc3ccccc3)nc2=O)cc1 [Cmpd 45]
melting point: 190 to 195 °C
pest or weed control at 100 ppm [1, 2]: 26 to 50%
pest or weed control at 100 ppm [1, 3]: 51 to 75%

SMILES: O=c1nc(NC(=S)Nc2ccccc2)c(F)cn1S(=O)(=O)c1cccs1 [Cmpd 46]
melting point: 182 to 185 °C
pest or weed control at 100 ppm [1, 2]: 0 to 25%
pest or weed control at 100 ppm [1, 3]: 26 to 50%

SMILES: O=C(Nc1nc(=O)n(S(=O)(=O)c2ccccc2)cc1F)Oc1ccccc1 [Cmpd 47, (1-benzenesulfonyl-5-fluoro-2-oxo-1,2-dihydropyrimidin-4-yl)carbamic acid phenyl ester]
melting point: 182 to 185 °C
pest or weed control at 100 ppm [1, 4]: 51 to 75%
pest or weed control at 100 ppm [1, 5]: 76 to 100%

SMILES: COc1ccc(S(=O)(=O)n2cc(F)c(NC(=O)Oc3ccccc3)nc2=O)cc1 [Cmpd 49]
melting point: 138 to 142 °C
pest or weed control at 100 ppm [1, 4]: 0 to 25%
pest or weed control at 100 ppm [1, 5]: 76 to 100%

SMILES: O=C(Nc1nc(=O)n(S(=O)(=O)c2c(Cl)cccc2Cl)cc1F)Oc1ccccc1 [Cmpd 50]
melting point: 199 to 203 °C
pest or weed control at 100 ppm [1, 4]: 76 to 100%
pest or weed control at 100 ppm [1, 5]: 76 to 100%
